Source: US12077503B2, “Substituted cyclic amides and their use as herbicides” (FMC CORPORATION, priority 2015, dated 2024)

Key:
Format in all cases: in vivo
[1] = system: giant foxtail (Setaria faberi); assay: Test G Post-Emergence Protocol; settings: Setaria faberi, post-emergence, 312 h; for pest or weed control at 15.625 g/ha: 15.625 g ai/ha, evaluated after 13 days (100=total damage to plant; 0=no damage to plant), read-out: Foxtail, Giant damage rating; for pest or weed control at 62.5 g/ha: 62.5 g ai/ha, read-out: Foxtail, Giant damage rating (100=total damage to plant; 0=no damage to plant); for pest or weed control at 62.5 g/ha / pest or weed control at 250 g/ha: evaluated after 13 days; for pest or weed control at 250 g/ha: 250 g ai/ha, read-out: damage to plant, Foxtail, Giant (100=total damage to plant; 0=no damage to plant)
Outline: (§1)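 Sow in soil; grow 8 d (24/16 °C, 14 h light, 65% humidity); spray 15.625/62.5/250 g/ha in acetone:water 50:50 + 0.5% Tween 20; grow on, water twice daily; score damage 0–100 at 13 d.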

[2] = system: barnyardgrass (Echinochloa crus-galli); assay: Test G Post-Emergence Protocol; settings: Echinochloa crus-galli, post-emergence, 312 h; for pest or weed control at 15.625 g/ha: 15.625 g ai/ha, evaluated after 13 days (100=total damage to plant; 0=no damage to plant), read-out: Barnyardgrass damage rating; for pest or weed control at 62.5 g/ha: 62.5 g ai/ha, read-out: Barnyardgrass damage rating (100=total damage to plant; 0=no damage to plant); for pest or weed control at 62.5 g/ha / pest or weed control at 250 g/ha: evaluated after 13 days; for pest or weed control at 250 g/ha: 250 g ai/ha, read-out: damage to plant, Barnyardgrass (100=total damage to plant; 0=no damage to plant)
Outline: as §1

corn (Zea mays) [3] = assay: Test G Post-Emergence Protocol; settings: Zea mays, post-emergence, 312 h; for plant injury at 15.625 g/ha: 15.625 g ai/ha, evaluated after 13 days (100=total damage to plant; 0=no damage to plant), read-out: Corn damage rating; for plant injury at 62.5 g/ha: 62.5 g ai/ha, read-out: Corn damage rating (100=total damage to plant; 0=no damage to plant); for plant injury at 62.5 g/ha / plant injury at 250 g/ha: evaluated after 13 days; for plant injury at 250 g/ha: 250 g ai/ha, read-out: damage to plant, Corn (100=total damage to plant; 0=no damage to plant)
Outline: as §1

[4] = system: velvetleaf (Abutilon theophrasti); assay: Test G Post-Emergence Protocol; settings: Abutilon theophrasti, post-emergence, 312 h; for pest or weed control at 15.625 g/ha: 15.625 g ai/ha, evaluated after 13 days (100=total damage to plant; 0=no damage to plant), read-out: Velvetleaf damage rating; for pest or weed control at 62.5 g/ha: 62.5 g ai/ha, read-out: Velvetleaf damage rating (100=total damage to plant; 0=no damage to plant); for pest or weed control at 62.5 g/ha / pest or weed control at 250 g/ha: evaluated after 13 days; for pest or weed control at 250 g/ha: 250 g ai/ha, read-out: damage to plant, Velvetleaf (100=total damage to plant; 0=no damage to plant)
Outline: as §1

[5] = system: ivy-leaved morning glory (Ipomoea hederacea); assay: Test G Post-Emergence Protocol; settings: Ipomoea, post-emergence, 312 h; for pest or weed control at 15.625 g/ha: 15.625 g ai/ha, evaluated after 13 days (100=total damage to plant; 0=no damage to plant), read-out: Morningglory, Ivy-leaved damage rating; for pest or weed control at 62.5 g/ha: 62.5 g ai/ha, read-out: Morningglory, Ivy-leaved damage rating (100=total damage to plant; 0=no damage to plant); for pest or weed control at 62.5 g/ha / pest or weed control at 250 g/ha: evaluated after 13 days; for pest or weed control at 250 g/ha: 250 g ai/ha, read-out: damage to plant, Morningglory, Ivy-leaved (100=total damage to plant; 0=no damage to plant)
Outline: as §1

[6] = system: redroot pigweed (Amaranthus retroflexus); assay: Test G Post-Emergence Protocol; settings: Amaranthus retroflexus, post-emergence, 312 h; for pest or weed control at 15.625 g/ha: 15.625 g ai/ha, evaluated after 13 days (100=total damage to plant; 0=no damage to plant), read-out: Pigweed, Redroot damage rating; for pest or weed control at 62.5 g/ha: 62.5 g ai/ha, read-out: Pigweed, Redroot damage rating (100=total damage to plant; 0=no damage to plant); for pest or weed control at 62.5 g/ha / pest or weed control at 250 g/ha: evaluated after 13 days; for pest or weed control at 250 g/ha: 250 g ai/ha, read-out: damage to plant, Pigweed, Redroot (100=total damage to plant; 0=no damage to plant)
Outline: as §1

[7] = system: giant foxtail (Setaria faberi); assay: Test G Pre-Emergence Protocol; settings: Setaria faberi, pre-emergence, 312 h, evaluated after 13 days; for pest or weed control at 15.625 g/ha: 15.625 g ai/ha; for pest or weed control at 15.625 g/ha / pest or weed control at 250 g/ha: read-out: Foxtail, Giant damage rating (100=total damage to plant; 0=no damage to plant); for pest or weed control at 62.5 g/ha: 62.5 g ai/ha, 100=total damage to plant, 0=no damage to plant, read-out: plant damage rating, Foxtail, Giant; for pest or weed control at 250 g/ha: 250 g ai/ha
Outline: (§2)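 Visual injury (0–100) at day 13 after a single pre-emergence spray. Rates: 15.625, 62.5, 250 g/ha in acetone–water 50:50 with 0.5% Tween 20. Growth conditions: 24/16° C, 14 h light, 65% humidity.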

[8] = system: barnyardgrass (Echinochloa crus-galli); assay: Test G Pre-Emergence Protocol; settings: Echinochloa crus-galli, pre-emergence, 312 h, evaluated after 13 days; for pest or weed control at 15.625 g/ha: 15.625 g ai/ha, read-out: Barnyard grass damage rating (100=total damage to plant; 0=no damage to plant); for pest or weed control at 62.5 g/ha: 62.5 g ai/ha, 100=total damage to plant, 0=no damage to plant, read-out: plant damage rating, Barnyardgrass; for pest or weed control at 250 g/ha: 250 g ai/ha, read-out: Barnyardgrass damage rating (100=total damage to plant; 0=no damage to plant)
Outline: as §2

corn (Zea mays) [9] = assay: Test G Pre-Emergence Protocol; settings: Zea mays, pre-emergence, 312 h, evaluated after 13 days; for plant injury at 15.625 g/ha: 15.625 g ai/ha; for plant injury at 15.625 g/ha / plant injury at 250 g/ha: read-out: Corn damage rating (100=total damage to plant; 0=no damage to plant); for plant injury at 62.5 g/ha: 62.5 g ai/ha, 100=total damage to plant, 0=no damage to plant, read-out: plant damage rating, Corn; for plant injury at 250 g/ha: 250 g ai/ha
Outline: as §2

[10] = system: velvetleaf (Abutilon theophrasti); assay: Test G Pre-Emergence Protocol; settings: Abutilon theophrasti, pre-emergence, 312 h, evaluated after 13 days; for pest or weed control at 15.625 g/ha: 15.625 g ai/ha; for pest or weed control at 15.625 g/ha / pest or weed control at 250 g/ha: read-out: Velvetleaf damage rating (100=total damage to plant; 0=no damage to plant); for pest or weed control at 62.5 g/ha: 62.5 g ai/ha, 100=total damage to plant, 0=no damage to plant, read-out: plant damage rating, Velvetleaf; for pest or weed control at 250 g/ha: 250 g ai/ha
Outline: as §2

[11] = system: ivy-leaved morning glory (Ipomoea hederacea); assay: Test G Pre-Emergence Protocol; settings: Ipomoea, pre-emergence, 312 h, evaluated after 13 days; for pest or weed control at 15.625 g/ha: 15.625 g ai/ha, read-out: Morning-glory, Ivy-leaved damage rating (100=total damage to plant; 0=no damage to plant); for pest or weed control at 62.5 g/ha: 62.5 g ai/ha, 100=total damage to plant, 0=no damage to plant, read-out: plant damage rating, Morningglory, Ivy-leaved; for pest or weed control at 250 g/ha: 250 g ai/ha, read-out: Morningglory, Ivy-leaved damage rating (100=total damage to plant; 0=no damage to plant)
Outline: as §2

[12] = system: redroot pigweed (Amaranthus retroflexus); assay: Test G Pre-Emergence Protocol; settings: Amaranthus retroflexus, pre-emergence, 312 h, evaluated after 13 days; for pest or weed control at 15.625 g/ha: 15.625 g ai/ha; for pest or weed control at 15.625 g/ha / pest or weed control at 250 g/ha: read-out: Pigweed, Redroot damage rating (100=total damage to plant; 0=no damage to plant); for pest or weed control at 62.5 g/ha: 62.5 g ai/ha, 100=total damage to plant, 0=no damage to plant, read-out: plant damage rating, Pigweed, Redroot; for pest or weed control at 250 g/ha: 250 g ai/ha
Outline: as §2

Compound	pest or weed control at 15.625 g/ha [1] [%]	pest or weed control at 62.5 g/ha [1] [%]	pest or weed control at 250 g/ha [1] [%]	pest or weed control at 15.625 g/ha [2] [%]	pest or weed control at 62.5 g/ha [2] [%]	pest or weed control at 250 g/ha [2] [%]	plant injury at 15.625 g/ha (corn (Zea mays) [3]) [%]	plant injury at 62.5 g/ha (corn (Zea mays) [3]) [%]	plant injury at 250 g/ha (corn (Zea mays) [3]) [%]	pest or weed control at 15.625 g/ha [4] [%]	pest or weed control at 62.5 g/ha [4] [%]	pest or weed control at 250 g/ha [4] [%]	pest or weed control at 15.625 g/ha [5] [%]	pest or weed control at 62.5 g/ha [5] [%]	pest or weed control at 250 g/ha [5] [%]	pest or weed control at 15.625 g/ha [6] [%]	pest or weed control at 62.5 g/ha [6] [%]	pest or weed control at 250 g/ha [6] [%]	pest or weed control at 15.625 g/ha [7] [%]	pest or weed control at 62.5 g/ha [7] [%]	further results
CN1C[C@@H](c2ccc(C(F)(F)F)cc2)[C@H](C(=O)Nc2ccnnc2)C1=O (racemic) [Compound 1518]	0	0	0	0	0	0	0	0	0	0	0	0	0	0	0	0	0	0	0	0	pest or weed control at 250 g/ha [7]: 0%; pest or weed control at 15.625 g/ha [8]: 0%; pest or weed control at 62.5 g/ha [8]: 0%; pest or weed control at 250 g/ha [8]: 0%; plant injury at 15.625 g/ha (corn (Zea mays) [9]): 0%; plant injury at 62.5 g/ha (corn (Zea mays) [9]): 0%; plant injury at 250 g/ha (corn (Zea mays) [9]): 0%; pest or weed control at 15.625 g/ha [10]: 0%; pest or weed control at 62.5 g/ha [10]: 0%; pest or weed control at 250 g/ha [10]: 0%; pest or weed control at 15.625 g/ha [11]: 0%; pest or weed control at 62.5 g/ha [11]: 0%; pest or weed control at 250 g/ha [11]: 0%; pest or weed control at 15.625 g/ha [12]: 0%; pest or weed control at 62.5 g/ha [12]: 0%; pest or weed control at 250 g/ha [12]: 0%
CN1C[C@@H](c2ccc(C(F)(F)F)cc2)[C@H](C(=O)Nc2sccc2C#N)C1=O (racemic) [Compound 1520]	0	30	70	0	30	60	0	0	20	0	0	10	10	30	40	0	0	10	20	60	pest or weed control at 250 g/ha [7]: 80%; pest or weed control at 15.625 g/ha [8]: 20%; pest or weed control at 62.5 g/ha [8]: 50%; pest or weed control at 250 g/ha [8]: 90%; plant injury at 15.625 g/ha (corn (Zea mays) [9]): 0%; plant injury at 62.5 g/ha (corn (Zea mays) [9]): 0%; plant injury at 250 g/ha (corn (Zea mays) [9]): 0%; pest or weed control at 15.625 g/ha [10]: 0%; pest or weed control at 62.5 g/ha [10]: 0%; pest or weed control at 250 g/ha [10]: 0%; pest or weed control at 15.625 g/ha [11]: 0%; pest or weed control at 62.5 g/ha [11]: 0%; pest or weed control at 250 g/ha [11]: 0%; pest or weed control at 15.625 g/ha [12]: 0%; pest or weed control at 62.5 g/ha [12]: 0%; pest or weed control at 250 g/ha [12]: 30%
CN1C[C@@H](c2ccc(C(F)(F)F)cc2)[C@H](C(=O)Nc2ccnc(F)c2)C1=O (racemic) [Compound 1529]	0	0	0	0	0	0	0	0	0	0	0	0	0	0	0	0	0	0	0	0	pest or weed control at 250 g/ha [7]: 0%; pest or weed control at 15.625 g/ha [8]: 0%; pest or weed control at 62.5 g/ha [8]: 0%; pest or weed control at 250 g/ha [8]: 0%; plant injury at 15.625 g/ha (corn (Zea mays) [9]): 0%; plant injury at 62.5 g/ha (corn (Zea mays) [9]): 0%; plant injury at 250 g/ha (corn (Zea mays) [9]): 0%; pest or weed control at 15.625 g/ha [10]: 0%; pest or weed control at 62.5 g/ha [10]: 0%; pest or weed control at 250 g/ha [10]: 0%; pest or weed control at 15.625 g/ha [11]: 0%; pest or weed control at 62.5 g/ha [11]: 0%; pest or weed control at 250 g/ha [11]: 0%; pest or weed control at 15.625 g/ha [12]: 0%; pest or weed control at 62.5 g/ha [12]: 0%; pest or weed control at 250 g/ha [12]: 0%
